US20070249670A1, “Glycogen Phosphorylase Inhibitor Compounds and Pharmaceutical Compositions Thereof” (SMITHKLINE BEECHAM CORPORATION, priority 2004, published 2007)

Target: T1, human liver glycogen phosphorylase a (HLGPa) (Homo sapiens, UniProt P06737)
T1 construct: creating a full-length cDNA fused at the 5′ end to codons for methionine-glycine-alanine-histidine; 6xHis tag (leader Met-Gly-Ala-His6-Gly-Gly) (N); made in house; host or cells: E. coli (bacterial expression plasmid pTXK1007LTev)
T1 sequence (P06737 2-847 limits assumed): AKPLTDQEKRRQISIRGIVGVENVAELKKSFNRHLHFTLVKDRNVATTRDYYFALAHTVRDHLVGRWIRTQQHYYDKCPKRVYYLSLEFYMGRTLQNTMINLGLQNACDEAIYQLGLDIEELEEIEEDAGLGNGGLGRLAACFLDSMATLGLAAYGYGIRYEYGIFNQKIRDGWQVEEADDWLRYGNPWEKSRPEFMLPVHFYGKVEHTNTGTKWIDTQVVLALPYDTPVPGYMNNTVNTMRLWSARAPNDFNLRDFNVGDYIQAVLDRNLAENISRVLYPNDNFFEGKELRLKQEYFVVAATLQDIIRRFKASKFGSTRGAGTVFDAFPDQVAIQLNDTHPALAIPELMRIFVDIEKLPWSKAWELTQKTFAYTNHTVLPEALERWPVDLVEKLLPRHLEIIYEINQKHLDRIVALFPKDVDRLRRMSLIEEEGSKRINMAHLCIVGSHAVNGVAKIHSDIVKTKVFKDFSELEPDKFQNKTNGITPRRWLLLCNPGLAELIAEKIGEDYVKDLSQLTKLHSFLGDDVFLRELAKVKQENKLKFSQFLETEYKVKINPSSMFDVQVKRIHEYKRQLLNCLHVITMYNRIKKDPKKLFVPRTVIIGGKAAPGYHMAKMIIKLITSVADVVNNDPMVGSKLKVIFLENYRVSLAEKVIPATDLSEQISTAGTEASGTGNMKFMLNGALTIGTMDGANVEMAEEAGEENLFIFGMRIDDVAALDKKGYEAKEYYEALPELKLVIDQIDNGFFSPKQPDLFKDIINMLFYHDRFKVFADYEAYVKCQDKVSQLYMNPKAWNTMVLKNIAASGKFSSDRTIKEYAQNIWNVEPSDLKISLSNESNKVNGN
Assay: Human liver glycogen phosphorylase a enzymatic activity assay (coupled, fluorescent resorufin readout, with and without 10 mM glucose)
Type: biochemical
Details: human liver glycogen phosphorylase a; table does not say whether with or without 10 mM glucose

| SMILES | IC50 [nM] |
| --- | --- |
| Cc1cc(C)c(NC(=O)Nc2cc3ccccc3nc2C(=O)NC2(C(=O)O)CCCCCC2)c(C)c1 [Example 306, 1-({[3-({[(2,4,6-trimethylphenyl)amino]carbonyl}amino)-2-quinolinyl]carbonyl}amino)cycloheptanecarboxylic acid] | 11 |
| Cc1cc(C)c(NC(=O)Nc2cc3ccccc3nc2C(=O)NC2(C(=O)O)CCCCCCC2)c(C)c1 [Example 307, 1-({[3-({[(2,4,6-trimethylphenyl)amino]carbonyl}amino)-2-quinolinyl]carbonyl}amino)cyclooctanecarboxylic acid] | 2 |
| CCCC(CCC)(NC(=O)c1cc2ccccc2cc1NC(=O)Nc1c(Cl)cccc1Cl)C(=O)O [Example 316, N-{[3-({[(2,6-dichlorophenyl)amino]carbonyl}amino)-2-naphthalenyl]carbonyl}-2-propylnorvaline] | 360 |
| Cc1cc(C)c(NC(=O)Nc2cc(Cl)cnc2C(=O)N[C@H](C(=O)O)C2CCCCC2)c(C)c1 [Example 317, (2S)-({[5-chloro-3-({[(2,4,6-trimethylphenyl)amino]carbonyl}amino)-2-pyridinyl]carbonyl}amino)(cyclohexyl)ethanoic acid] | 920 |
| Cc1cc(C)c(NC(=O)Nc2cc(Cl)cnc2C(=O)NC2(C(=O)O)CCCCCC2)c(C)c1 [Example 319, 1-({[5-chloro-3-({[(2,4,6-trimethylphenyl)amino]carbonyl}amino)-2-pyridinyl]carbonyl}amino)cycloheptanecarboxylic acid] | 470 |
| CCCc1cc(C)c(NC(=O)Nc2cc(Cl)cnc2C(=O)NC2(C(=O)O)CCCCCCC2)c(C)c1 [Example 320, 1-({[5-Chloro-3-({[(2,6-dimethyl-4-propylphenyl)amino]carbonyl}amino)-2-pyridinyl]carbonyl}amino)cyclooctanecarboxylic acid] | 38 |
| Cc1cc(C)c(NC(=O)Nc2cc(-c3ccccc3)cnc2C(=O)N[C@H](C(=O)O)C2CCCCC2)c(C)c1 [Example 321, (2S)-Cyclohexyl({[5-phenyl-3-({[(2,4,6-trimethylphenyl)amino]carbonyl}amino)-2-pyridinyl]carbonyl}amino)ethanoic acid] | 150 |
| Cc1cc(C)c(NC(=O)Nc2cc(-c3ccc(F)c(F)c3)cnc2C(=O)N[C@H](C(=O)O)[C@@H](C)OC(C)(C)C)c(C)c1 [Example 324, N-{[5-(3,4-Difluorophenyl)-3-({[(2,4,6-trimethylphenyl)amino]carbonyl}amino)-2-pyridinyl]carbonyl}-O-(1,1-dimethylethyl)-L-threonine] | 470 |
| COc1ccc(-c2cnc(C(=O)NC3(C(=O)O)CCCCCC3)c(NC(=O)Nc3c(C)cc(C)cc3C)c2)cc1 [Example 325, 1-({[5-[4-(methyloxy)phenyl]-3-({[(2,4,6-trimethylphenyl)amino]carbonyl}amino)-2-pyridinyl]carbonyl}amino)cycloheptanecarboxylic acid] | 31 |
| O=C(O)CCN(Cc1ccccc1)C(=O)c1cc2ccccc2cc1NC(=O)Nc1c(Cl)cccc1Cl [Example 331, N-{[3-({[(2,6-dichlorophenyl)amino]carbonyl}amino)-2-naphthalenyl]carbonyl}-N-(phenylmethyl)-beta-alanine] | 2180 |
| O=C(Nc1cc2ccccc2cc1C(=O)N1CCCC(C(=O)O)C1)Nc1c(Cl)cccc1Cl (stereo not drawn) [Example 333, 1-{[3-({[(2,6-Dichlorophenyl)amino]carbonyl}amino)-2-naphthalenyl]carbonyl}-3-piperidinecarboxylic acid] | 9270 |
| Cc1cccc(C)c1NC(=O)Nc1cc2ccccc2cc1C(=O)N1CCC[C@H]1C(=O)O [Example 334, 1-{[3-({[(2,6-dimethylphenyl)amino]carbonyl}amino)-2-naphthalenyl]carbonyl}-L-proline] | 420 |
| Cc1cc(C)c(NC(=O)Nc2cc3ccccc3cc2C(=O)N[C@H](CC(=O)O)C(C)C)c(C)c1 [Example 339, (3R)-4-methyl-3-({[3-({[(2,4,6-trimethylphenyl)amino]carbonyl}amino)-2-naphthalenyl]carbonyl}amino)pentanoic acid] | 1560 |

Further molecules by falling IC50, results first:

| IC50 [nM] | SMILES |
| --- | --- |
| 14400 | Cc1cc(C)c(NC(=O)Nc2cc3ccccc3cc2C(=O)NCC2CCCCC2)c(C)c1 [Example 330, N-(cyclohexylmethyl)-3-({[(2,4,6-trimethylphenyl)amino]carbonyl}amino)-2-naphthalenecarboxamide] |
| 9870 | O=C(Nc1c(Cl)cccc1Cl)Nc1c(C(=O)N[C@H](C(=O)O)C2CCCCC2)oc2cc(Br)ccc12 [Example 327, (2S)-({[6-Bromo-3-({[(2,6-dichlorophenyl)amino]carbonyl}amino)-1-benzofuran-2-yl]carbonyl}amino)(cyclohexyl)ethanoic acid] |
| 7390 | O=C(Nc1c(Cl)cc(Cl)cc1Cl)Nc1c(C(=O)N[C@H](C(=O)O)C2CCCCC2)oc2cc(Br)ccc12 [Example 326, (2S)-({[6-Bromo-3-({[(2,4,6-trichlorophenyl)amino]carbonyl}amino)-1-benzofuran-2-yl]carbonyl}amino)(cyclohexyl)ethanoic acid] |
| 5260 | Cc1cc(C)c(NC(=O)Nc2cc3ccccc3cc2C(=O)N[C@H](CC(=O)OC(C)(C)C)C2CCCCC2)c(C)c1 [Example 337, 1,1-dimethylethyl (3R)-3-cyclohexyl-3-({[3-({[(2,4,6-trimethylphenyl)amino]carbonyl}amino)-2-naphthalenyl]carbonyl}amino)propanoate] |
| 4350 | O=C(O)CN(Cc1ccccc1)C(=O)c1cc2ccccc2cc1NC(=O)Nc1c(Cl)cc(Cl)cc1Cl [Example 332, N-(phenylmethyl)-N-{[3-({[(2,4,6-trichlorophenyl)amino]carbonyl}amino)-2-naphthalenyl]carbonyl}glycine] |
| 2130 | Cc1cc(C)c(NC(=O)Nc2cc3ccccc3cc2C(=O)N[C@H](CC(=O)O)C2CCCCC2)c(C)c1 [Example 338, (3R)-3-cyclohexyl-3-({[3-({[(2,4,6-trimethylphenyl)amino]carbonyl}amino)-2-naphthalenyl]carbonyl}amino)propanoic acid] |
| 1800 | CCCC[C@H](NC(=O)c1nc2ccccc2cc1NC(=O)Nc1c(Cl)cccc1Cl)C(=O)O [Example 314, N-{[3-({[(2,6-dichlorophenyl)amino]carbonyl}amino)-2-quinolinyl]carbonyl}-L-norleucine] |
| 610 | Cc1cc(C)c(NC(=O)Nc2cc3ccccc3cc2C(=O)N[C@H](CC(=O)O)c2ccccc2)c(C)c1 [Example 336, (3R)-3-phenyl-3-({[3-({[(2,4,6-trimethylphenyl)amino]carbonyl}amino)-2-naphthalenyl]carbonyl}amino)propanoic acid] |
| 250 | Cc1cc(Br)cc(C)c1NC(=O)Nc1cc2ccccc2cc1C(=O)NC1(C(=O)O)CCCCCC1 [Example 308, 1-({[3-({[(4-bromo-2,6-dimethylphenyl)amino]carbonyl}amino)-2-naphthalenyl]carbonyl}amino)cycloheptanecarboxylic acid] |
| 230 | Cc1cc(C)c(NC(=O)Nc2cc3ccccc3nc2C(=O)N[C@](C)(C(=O)O)C2CCCCC2)c(C)c1 [Example 312, 2-Cyclohexyl-N-{[3-({[(2,4,6-trimethylphenyl)amino]carbonyl}amino)-2-quinolinyl]carbonyl}-D-alanine] |
| 170 | COc1ccc(-c2cnc(C(=O)N[C@H](C(=O)O)[C@@H](C)OC(C)(C)C)c(NC(=O)Nc3c(C)cc(C)cc3C)c2)cc1 [Example 323, O-(1,1-dimethylethyl)-N-{[5-[4-(methyloxy)phenyl]-3-({[(2,4,6-trimethylphenyl)amino]carbonyl}amino)-2-pyridinyl]carbonyl}-L-threonine] |
| 160 | CCCC[C@H](NC(=O)c1nc2ccccc2cc1NC(=O)Nc1c(C)cc(C)cc1C)C(=O)O [Example 313, N-{[3-({[(2,4,6-trimethylphenyl)amino]carbonyl}amino)-2-quinolinyl]carbonyl}-L-norleucine] |
| 83 | COc1ccc(-c2cnc(C(=O)N[C@H](C(=O)O)C3CCCCC3)c(NC(=O)Nc3c(C)cc(C)cc3C)c2)cc1 [Example 322, (2S)-Cyclohexyl({[5-[4-(methyloxy)phenyl]-3-({[(2,4,6-trimethylphenyl)amino]carbonyl}amino)-2-pyridinyl]carbonyl}amino)ethanoic acid] |
| 11 | CCCc1cc(C)c(NC(=O)Nc2cc3ccccc3cc2C(=O)NC2(C(=O)O)CCCCCC2)c(C)c1 [Example 309, 1-({[3-({[(2,6-dimethyl-4-propylphenyl)amino]carbonyl}amino)-2-naphthalenyl]carbonyl}amino)cycloheptanecarboxylic acid] |
